Source: patent publication US20070149457A1, “Stable solid forms of enterostatin” (priority 2005, published 2007)

Key:
[1] = Humidity stress experiments at 58% relative humidity; assay type: physicochemical; details: for Observations after humidity stress: 58% RH; for Physical state after humidity stress: 58% relative humidity for 4 or 10 days
Description: A sample of this enterostatin acetate, 1-hydroxy-2-naphthoic acid co-complex of the invention was stressed at 58% relative humidity for 4 or 10 days.
A sample of this enterostatin chloride, 1-hydroxy-2-naphthoic acid co-complex of the invention was stressed at 58% relative humidity for 4 or 10 days.
A sample of each co-complex of the above examples was stressed at 58% relative humidity for either 4 or 10 days.
The cocrystal guests piperazine and 1-OH-2-napthoic acid were stressed at 58% relative humidity.

[2] = Moisture balance (weight change with relative humidity); assay type: physicochemical
Procedure: Analytical techniques discussed below were conventional unless otherwise specified. In particular, differential scanning calorimetry and moisture balance experiments were carried out according to standard techniques. NMR was in D2O.
FIG. 3 provides moisture balance of this enterostatin acetate, 1-hydroxy-2-naphthoic acid co-complex of the invention.

| Observations after humidity stress ([1]; 10 days) | Observations after humidity stress ([1]; 14 days) | Observations after humidity stress ([1]; 4 days) | Physical state after humidity stress [1] | Compound | further results |
| --- | --- | --- | --- | --- | --- |
| Tacky white goo | – | – | – | Enterostatin Sulfate, Hippuric Acid [Example 7] | – |
| – | Light brown chunks | – | – | O=C(O)c1ccc2ccccc2c1O [1-OH-2-napthoic acid, reference compound] | Observations after humidity stress ([1]; 14 days, listed as 1-OH-2-napthoic): remained a solid |
| – | – | Bits, broken glass | remained solid | Enterostatin Acetate, 1-Hydroxy-2-naphthoic Acid [Example 2] | weight gain (moisture balance) ([2]; from 5 to 95% relative humidity): 22%; weight loss (moisture balance) ([2]; from 95 to 5% relative humidity): 24% |
| – | – | Irregulars, chunks | remained solid | Enterostatin Chloride, 1-Hydroxy-2-naphthoic Acid [Example 3] | – |
| Deliquesced | – | – | – | Enterostatin Chloride, Camphoric Acid [Example 5] | – |
| – | Oil puddle | – | – | C1CNCCN1 [Piperazine, reference compound] | Observations after humidity stress ([1]; 5 days): Oil puddle |
